Source: the supplement of paper PMC10307832

Columns and labels:
Assay in all cases: relative viability (nuclei count vs DMSO), 5 days (fraction); higher = more cells survive
[1] = test system: 201T
Summary of the method: (§1)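 Values are medians from duplicate plates. Each reflects relative viability, defined as the nuclei count of treated wells over that of vehicle wells. Lung cancer cell lines in 1536-well plates were pin-tool dosed one day after seeding with one drug alone or with a fixed anchor-drug dose plus five library-drug doses (not always all listed) in √10 steps, then fixed, stained and imaged at 4× after 5 days.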

[2] = test system: COR-L 105
Summary of the method: as §1

[3] = test system: EKVX
Summary of the method: as §1

[4] = test system: H3255
Summary of the method: as §1

[5] = test system: HARA
Summary of the method: as §1

[6] = test system: HCC-827
Summary of the method: as §1

[7] = test system: HOP-62
Summary of the method: as §1

[8] = test system: LCLC-103H
Summary of the method: as §1

[9] = test system: LOU-NH91
Summary of the method: as §1

[10] = test system: NCI-H1975
Summary of the method: as §1

[11] = test system: NCI-H2126
Summary of the method: as §1

[12] = test system: NCI-H2228
Summary of the method: as §1

[13] = test system: NCI-H23
Summary of the method: as §1

[14] = test system: NCI-H2405
Summary of the method: as §1

[15] = test system: NCI-H3122
Summary of the method: as §1

[16] = test system: NCI-H596
Summary of the method: as §1

[17] = test system: NCI-H650
Summary of the method: as §1

[18] = test system: NCI-H661
Summary of the method: as §1

[19] = test system: NCI-H727
Summary of the method: as §1

[20] = test system: PC-3 [JPC-3]
Summary of the method: as §1

[21] = test system: SK-LU-1
Summary of the method: as §1

Which results are given for `Cc1cn(-c2cc(NC(=O)c3ccc(C)c(Nc4nccc(-c5cccnc5)n4)c3)cc(C(F)(F)F)c2)cn1` [Nilotinib] + Cc1nc(NC(=O)N2CCC[C@H]2C(N)=O)sc1-c1ccnc(C(C)(C)C(F)(F)F)c1 [Alpelisib] (partner 2 µM)?
relative viability ([1]; first compound 0.003162 µM): 1.11; relative viability ([1]; first compound 0.01 µM): 1.09; relative viability ([1]; first compound 0.1 µM): 1.07; relative viability ([2]; first compound 0.001 µM): 0.905; relative viability ([2]; first compound 0.01 µM): 1.22; relative viability ([2]; first compound 0.03162 µM): 0.92; relative viability ([2]; first compound 0.1 µM): 0.917; relative viability ([3]; first compound 0.001 µM): 0.813; relative viability ([3]; first compound 0.003162 µM): 1.13; relative viability ([3]; first compound 0.01 µM): 1.29; relative viability ([3]; first compound 0.03162 µM): 0.909; relative viability ([3]; first compound 0.1 µM): 1.02; relative viability ([4]; first compound 0.001 µM): 0.681; relative viability ([4]; first compound 0.003162 µM): 0.699; relative viability ([4]; first compound 0.01 µM): 0.829; relative viability ([4]; first compound 0.03162 µM): 0.65; relative viability ([4]; first compound 0.1 µM): 0.796; relative viability ([5]; first compound 0.001 µM): 0.723; relative viability ([5]; first compound 0.003162 µM): 0.915; relative viability ([5]; first compound 0.01 µM): 1.06; relative viability ([5]; first compound 0.03162 µM): 0.551; relative viability ([5]; first compound 0.1 µM): 0.821; relative viability ([6]; first compound 0.001 µM): 1.1; relative viability ([6]; first compound 0.003162 µM): 1.09; relative viability ([6]; first compound 0.01 µM): 1.03; relative viability ([6]; first compound 0.1 µM): 0.92; relative viability ([7]; first compound 0.001 µM): 0.889; relative viability ([7]; first compound 0.003162 µM): 0.843; relative viability ([7]; first compound 0.01 µM): 1.13; relative viability ([7]; first compound 0.03162 µM): 0.742; relative viability ([7]; first compound 0.1 µM): 0.7; relative viability ([8]; first compound 0.001 µM): 1.03; relative viability ([8]; first compound 0.003162 µM): 1.09; relative viability ([8]; first compound 0.03162 µM): 1; relative viability ([8]; first compound 0.1 µM): 0.956; relative viability ([9]; first compound 0.001 µM): 0.741; relative viability ([9]; first compound 0.003162 µM): 0.7; relative viability ([9]; first compound 0.01 µM): 0.802; relative viability ([9]; first compound 0.03162 µM): 0.707; relative viability ([9]; first compound 0.1 µM): 0.676; relative viability ([10]; first compound 0.001 µM): 0.723; relative viability ([10]; first compound 0.003162 µM): 0.867; relative viability ([10]; first compound 0.01 µM): 0.868; relative viability ([10]; first compound 0.03162 µM): 0.737; relative viability ([10]; first compound 0.1 µM): 0.648; relative viability ([11]; first compound 0.001 µM): 0.732; relative viability ([11]; first compound 0.003162 µM): 0.809; relative viability ([11]; first compound 0.01 µM): 0.85; relative viability ([11]; first compound 0.03162 µM): 0.829; relative viability ([11]; first compound 0.1 µM): 0.575; relative viability ([12]; first compound 0.001 µM): 0.602; relative viability ([12]; first compound 0.003162 µM): 0.763; relative viability ([12]; first compound 0.01 µM): 0.814; relative viability ([12]; first compound 0.03162 µM): 0.813; relative viability ([12]; first compound 0.1 µM): 0.455; relative viability ([13]; first compound 0.001 µM): 0.654; relative viability ([13]; first compound 0.003162 µM): 0.784; relative viability ([13]; first compound 0.01 µM): 0.773; relative viability ([13]; first compound 0.03162 µM): 0.536; relative viability ([13]; first compound 0.1 µM): 0.665; relative viability ([14]; first compound 0.001 µM): 0.808; relative viability ([14]; first compound 0.003162 µM): 0.733; relative viability ([14]; first compound 0.01 µM): 0.715; relative viability ([14]; first compound 0.03162 µM): 0.597; relative viability ([14]; first compound 0.1 µM): 0.486; relative viability ([15]; first compound 0.001 µM): 0.941; relative viability ([15]; first compound 0.003162 µM): 0.925; relative viability ([15]; first compound 0.01 µM): 0.87; relative viability ([15]; first compound 0.03162 µM): 0.683; relative viability ([15]; first compound 0.1 µM): 0.587; relative viability ([16]; first compound 0.001 µM): 0.457; relative viability ([16]; first compound 0.003162 µM): 0.541; relative viability ([16]; first compound 0.01 µM): 0.481; relative viability ([16]; first compound 0.03162 µM): 0.299; relative viability ([16]; first compound 0.1 µM): 0.478; relative viability ([17]; first compound 0.001 µM): 1; relative viability ([17]; first compound 0.003162 µM): 1.09; relative viability ([17]; first compound 0.01 µM): 1.4; relative viability ([17]; first compound 0.03162 µM): 0.989; relative viability ([17]; first compound 0.1 µM): 1.23; relative viability ([18]; first compound 0.001 µM): 0.647; relative viability ([18]; first compound 0.003162 µM): 0.592; relative viability ([18]; first compound 0.01 µM): 0.721; relative viability ([18]; first compound 0.03162 µM): 0.366; relative viability ([18]; first compound 0.1 µM): 0.651; relative viability ([19]; first compound 0.001 µM): 0.573; relative viability ([19]; first compound 0.01 µM): 0.719; relative viability ([19]; first compound 0.03162 µM): 0.456; relative viability ([19]; first compound 0.1 µM): 0.395; relative viability ([20]; first compound 0.001 µM): 0.987; relative viability ([20]; first compound 0.003162 µM): 1.27; relative viability ([20]; first compound 0.01 µM): 1.26; relative viability ([20]; first compound 0.03162 µM): 1.05; relative viability ([20]; first compound 0.1 µM): 0.982; relative viability ([21]; first compound 0.001 µM): 0.929; relative viability ([21]; first compound 0.003162 µM): 1.03; relative viability ([21]; first compound 0.01 µM): 1.06; relative viability ([21]; first compound 0.03162 µM): 0.632; relative viability ([21]; first compound 0.1 µM): 0.719
